Assay results reported in patent US20230134986A1, “GLUCOSE TRIPTOLIDE CONJUGATES AND USES THEREOF” (The Johns Hopkins University, priority 2020, published 2023).
Read-outs that look alike come from different tables or passages of the source.

Assays:
[1] = test system: HEK 293T cells; assay: HEK293T cell proliferation assay ([3H]-thymidine incorporation); format: cell-based, human; conditions: for IC50: Homo sapiens, HEK-293T, 24 h, read-out: IC50 ± SEM
Text: (§1) Cells and culture conditions. Primary astrocytes (Lonza, Walkersville, Md.; ABM™ Basal Media with AGM™ SingleQuots™ Supplement Pack), fibroblast (ATCC; Fibroblast Basal Medium (ATCC© PCS-201-030™) with Fibroblast Growth Kit-Serum-free (ATCC© PCS-201-040™)), airway epithelial cell (ATCC; Airway Epithelial Cell Basal Medium (ATCC© PCS-300-030™) with Bronchial Epithelial Cell Growth Kit (ATCC© PCS-300-040™)), renal proximal tubule (ATCC; Renal Epithelial Cell Basal Medium (ATCC© PCS-400-030™) with Renal Epithelial Cell Growth Kit (ATCC© PCS-400-040™)), prostate epithelial cell (Lonza; PrEGM™ BulletKit™) and mammary epithelial cell (Lonza; MEBM™ BulletKit™) were kept in a humidified incubator at 37° C. adjusted to 5% CO2. Prostate (PC3, LNCaP, DU-145), breast (MDA-MB-231, MDA-MB-453, SK-BR-3), head and neck (A253, Detroit 562, SCC-25), melanoma (SK-Mel-3, SK-Mel-1, RPMI-7951), pancreatic (CfPAC-1, BxPC3, SW1990), lung (A549, NCI-H1299, NCI-H1437) and liver (SNU-475, SK-HEP-1, SNU-387) cancer cell lines were obtained from ATCC and cultured in their respective media (prostate cells: RPMI-1640, MDA-MB-231: RPMI-1640, MDA-MB-453: Leibovitz's L-15, SK-BR-3: McCoy's 5a, A253: McCoy's 5a, Detroit 562: EMEM, SCC-25: DMEM, SK-Mel-3: McCoy's 5a, SK-Mel-1: EMEM, RPMI-7951: EMEM), CfPAC-1: IMDM, BxPC3: RPMI-1640, SW1990: Leibovitz's L-15), A549: F-12K, NCI-H1299: RPMI-1640, NCI-H1437: RPMI-1640, SNU-475: RPMI-1640, SK-HEP-1: EMEM, SNU-387: RPMI-1640. All media were supplemented with 10% (vol/vol) filtered fetal bovine serum (FBS, Invitrogen, Carlsbad, Calif.), 1% penicillin/streptomycin (Invitrogen) and maintained in a humidified incubator at 37° C. with 5% CO2 except for MDA-MB-453 and SW1990 grown at 37° C. without CO2 control. Wild type (ATCC) and C342T XPB knock-in cells (named T7115) of Human Embryonic Kidney 293T (HEK293T), HeLa (ATCC) were cultured in DMEM (GIBCO) with 10% (vol/vol) filtered fetal bovine serum (FBS, Invitrogen, Carlsbad, Calif.), 1% penicillin/streptomycin (Invitrogen).
Proliferation and viability assays. [^3H]-thymidine incorporation. HEK293T cells (10,000 cells/well) were seeded into 96-well plates then cultured in DMEM plus 10% FBS and 1% penicillin/streptomycin at 37° C. with 5% CO2 overnight. Drugs were added at indicated concentrations and incubation was continued for an additional 24 h. For hypoxia, PC3 (5,000 cells/well) were exposed to 1% O2 (Airgas) in a humidified hypoxia chamber (Billups-Rothenberg) in 37° C. for 48 h prior to drug exposure for 48 h. Treated cells were then pulsed using an aliquot of 1 μCi of [^3H]-thymidine (Perkin Elmer) per well for an additional 6 h. Radiolabelled cells were harvested onto a printed Filtermat A glass fiber filter (Perkin Elmer) using a Tomtec Harvester 96 Mach III M. Betaplate Scint (Perkin Elmer) scintillation fluid was added to radiolabelled filters followed by scintillation counting on Microbeta2 LumiJET Microplate Counter (Perkin Elmer).

[2] = test system: MDA-MB-231; assay: XTT viability assay, MDA-MB-231; format: cell-based; conditions: Homo sapiens; Breast Cancer, MDA-MB-231, XTT
Text: (§2) Cells and culture conditions. Primary astrocytes (Lonza, Walkersville, Md.; ABM™ Basal Media with AGM™ SingleQuots™ Supplement Pack), fibroblast (ATCC; Fibroblast Basal Medium (ATCC© PCS-201-030™) with Fibroblast Growth Kit-Serum-free (ATCC© PCS-201-040™)), airway epithelial cell (ATCC; Airway Epithelial Cell Basal Medium (ATCC© PCS-300-030™) with Bronchial Epithelial Cell Growth Kit (ATCC© PCS-300-040™)), renal proximal tubule (ATCC; Renal Epithelial Cell Basal Medium (ATCC© PCS-400-030™) with Renal Epithelial Cell Growth Kit (ATCC© PCS-400-040™)), prostate epithelial cell (Lonza; PrEGM™ BulletKit™) and mammary epithelial cell (Lonza; MEBM™ BulletKit™) were kept in a humidified incubator at 37° C. adjusted to 5% CO2. […]
(§3) XTT assay. […] Cell viability was measured using the R&D Systemsm TACS XTT Cell Proliferation/Viability Assay (R&D Systems, Minneapolis, Minn.).

[3] = test system: SK-Mel-1; assay: XTT viability assay, SK-Mel-1; format: cell-based; conditions: Homo sapiens; Melanoma, SK-Mel-1, XTT
Text: as §2, §3

[4] = test system: PC3 prostate cancer cells expressing firefly luciferase; assay: Experimental metastatic prostate cancer mouse model (PC3/ML/fluc, tail vein); format: in vivo; conditions: for tumor cells by bioluminescence imaging: 1 mg/kg daily for 30 days; for Median survival time: i.p. once daily for 30 days
Method: In vivo tumor xenograft assay. Animal experiments were performed following the protocols approved by the Johns Hopkins University Animal Care and Use Committee. The experimental murine model of human prostate cancer metastasis used in this study was generated as previously described. (Bhatnagar et al. (2014) Cancer Res. 74:5772-81) Briefly, four-to six-week-old, male NOD/SCID/IL2R^γnull (NSG, purchased from Animal Resources Core, JHU) were injected with a million PC3/ML/fluc cells via tail vein. Tumor formation was confirmed by bioluminescence imaging (BLI) using the IVIS Spectrum Imaging System (Caliper Life Sciences, Hopkinton, Mass.) three weeks after injection and the mice were given indicated doses of drug once daily (intraperitoneal injection) for 30 days. Tumor progression was then monitored weekly by BLI and survival monitored concurrently.

[5] = test system: SNU-475; assay: XTT viability assay, SNU-475; format: cell-based; conditions: Homo sapiens; Liver Cancer, SNU-475, XTT
Text: as §2, §3

[6] = test system: Cancer cell lines; assay: XTT viability assay, panel of cancer cell lines (means and ranges); format: cell-based; conditions: Homo sapiens
Text: as §1
XTT assay. Five thousand cells/well were plated on flat-bottom, transparent 96-well plate in a full growth media and incubated at appropriate culture conditions. Twenty four hours after seeding, cells were treated with indicated drugs and incubated for 47 hrs. Cell viability was measured using the R&D Systemsm TACS XTT Cell Proliferation/Viability Assay (R&D Systems, Minneapolis, Minn.).

[7] = test system: SK-HEP-1; assay: XTT viability assay, SK-HEP-1; format: cell-based; conditions: Homo sapiens, SK-HEP1; Liver Cancer, SK-HEP-1, XTT
Text: as §2, §3

[8] = test system: MDA-MB-453; assay: XTT viability assay, MDA-MB-453; format: cell-based; conditions: Homo sapiens; Breast Cancer, MDA-MB-453, XTT
Text: as §2, §3

[9] = test system: LNCaP; assay: XTT viability assay, LNCaP; format: cell-based; conditions: Homo sapiens, Prostate Cancer
Text: as §2, §3

[10] = test system: SW1990; assay: XTT viability assay, SW1990; format: cell-based; conditions: Homo sapiens, Pancreatic Cancer
Text: as §2, §3

[11] = test system: SNU-387; assay: XTT viability assay, SNU-387; format: cell-based; conditions: Homo sapiens; Liver Cancer, SNU-387, XTT
Text: as §2, §3

[12] = test system: SK-BR-3; assay: XTT viability assay, SK-BR-3; format: cell-based; conditions: Homo sapiens; Breast Cancer, SK-BR-3, XTT
Text: as §2, §3

[13] = 1 mg/kg, days after initiation of treatment
[14] = Cancer cell lines (n = 21), read-out: mean IC50 by cell type
[15] = Less sensitive lines (n = 13), IC50 ≥ 1 μM, read-out: mean IC50 by cell type
[16] = Sensitive lines (n = 8), IC50 < 1 μM, read-out: mean IC50 by cell type

Row | Compound | IC50 [1] | IC50 [2] | IC50 [3] | tumor cells by bioluminescence imaging [4] | Median survival time [4, 13] | IC50 [5] | IC50 [6, 14] | IC50 [6, 15] | IC50 [6, 16] | IC50 [7] | IC50 [8] | IC50 [9] | IC50 [10] | IC50 [11] | IC50 [12] | fold more potent against cancer cells in vitro than compound 10 ([1]; in vitro) | Median survival time ([4]; 0.25 mg/kg) | Median survival time ([4]; 0.5 mg/kg) | longest survival ([4]; 1 mg/kg treatment group, versus 26 days for untreated group) | IC50 ([6]; with the exception of SNU-387 and NCI-H1299, read-out: range of IC50 values for cancer cell lines)
1 | CC(C)[C@]12O[C@H]1[C@@H]1O[C@]13[C@]1(O[C@H]1C[C@H]1C4=C(CC[C@@]13C)C(=O)OC4)[C@@H]2OC(=O)CCC(=O)O[C@@H]1OC(CO)[C@@H](O)C(O)C1O (some centres unmarked) [Compound 10] | 279 ± 0.611 nM | 280 ± 10 nM | 1290 nM | tumor cells were cleared by week 2 of treatment | 76 days | 3850 ± 3260 nM | 2420 ± 2000 nM | 3700 ± 2330 nM | 490 nM | 3380 ± 710 nM | 530 ± 200 nM | 560 ± 90 nM | 1520 ± 330 nM | 15500 ± 9280 nM | 1300 nM |  |  |  |  | 
2 | CC(C)[C@]12O[C@H]1[C@@H]1O[C@]13[C@]1(O[C@H]1C[C@H]1C4=C(CC[C@@]13C)C(=O)OC4)[C@@H]2OC(=O)CCCO[C@@H]1OC(CO)[C@@H](O)C(O)C1O (stereo in doubt) [Compound 1] | 71 nM | 260 ± 100 nM | 3440 nM | undetectable levels of cancer cells two weeks after cessation of treatment | 84 days | 4600 ± 4550 nM | 3940 ± 3260 nM | 6250 ± 3680 nM | 470 ± 60 nM | 5900 ± 280 nM | 530 ± 280 nM | 450 ± 330 nM | 6480 ± 2790 nM | 24400 ± 8900 nM | 2160 ± 1590 nM | 4 fold | 46 days | 76 days | 86 days | 260 to 6500 nM
